Reference: patent US20250019701A1, “TREATMENT FOR INFLAMMATORY DISEASE” (priority 2021, published 2025)

Legend:
THP-1 cells [1] = type: cell-based, human; conditions: 48 hours ligand treatment
A549 cells [2] = tested on: A549 cells
A549 cells [3] = type: cell-based, human
THP-1 cells [4] = type: cell-based, human
ASC = type: cell-based, human; conditions: THP-1; after ORF8 transfection; 30 uM Etifoxine or 200 nM PK11195 for 24 hours
Vero cells = conditions: etifoxine 30 μM, counting adherent cells
[5] = target: T1, NLRP3 (NLR family pyrin domain containing 3) (human, UniProt Q96P20 1-1036); test: co-immunoprecipitation from THP-1 cells, TSPO as bait, western blot
T1 construct: Endogenous protein in the THP-1 cell lysate; also called NRLP3
T1 sequence (Q96P20 whole entry, the tested form may be a part): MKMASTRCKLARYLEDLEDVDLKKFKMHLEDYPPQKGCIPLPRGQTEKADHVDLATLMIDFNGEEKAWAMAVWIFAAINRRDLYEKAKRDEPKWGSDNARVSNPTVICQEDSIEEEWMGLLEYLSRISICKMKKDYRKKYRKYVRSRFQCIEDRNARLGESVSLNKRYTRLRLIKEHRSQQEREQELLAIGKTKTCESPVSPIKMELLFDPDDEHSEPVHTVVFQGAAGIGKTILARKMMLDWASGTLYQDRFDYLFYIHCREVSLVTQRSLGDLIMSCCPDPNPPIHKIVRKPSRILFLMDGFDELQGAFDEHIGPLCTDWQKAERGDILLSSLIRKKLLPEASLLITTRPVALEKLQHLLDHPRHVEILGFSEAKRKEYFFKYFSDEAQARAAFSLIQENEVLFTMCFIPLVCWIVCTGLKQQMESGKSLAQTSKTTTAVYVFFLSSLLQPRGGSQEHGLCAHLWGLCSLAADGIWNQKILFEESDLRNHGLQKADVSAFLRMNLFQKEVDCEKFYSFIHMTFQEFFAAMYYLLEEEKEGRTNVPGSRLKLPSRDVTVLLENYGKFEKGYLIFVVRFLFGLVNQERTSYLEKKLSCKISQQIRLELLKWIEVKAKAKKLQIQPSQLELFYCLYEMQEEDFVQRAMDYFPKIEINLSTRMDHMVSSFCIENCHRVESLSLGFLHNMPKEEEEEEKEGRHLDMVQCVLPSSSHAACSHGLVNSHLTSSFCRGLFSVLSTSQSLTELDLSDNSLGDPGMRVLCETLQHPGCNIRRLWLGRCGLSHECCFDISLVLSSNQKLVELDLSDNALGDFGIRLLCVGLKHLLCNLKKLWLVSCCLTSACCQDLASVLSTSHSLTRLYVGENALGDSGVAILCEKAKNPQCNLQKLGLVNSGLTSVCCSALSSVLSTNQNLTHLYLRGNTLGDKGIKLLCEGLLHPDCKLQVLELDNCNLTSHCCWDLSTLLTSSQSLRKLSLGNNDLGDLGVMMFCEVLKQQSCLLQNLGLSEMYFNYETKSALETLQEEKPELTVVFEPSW

`CCCCCCN(CCCCCC)C(=O)Cc1c(-c2ccc(F)cc2)[nH]c2ccccc12` [FGIN, FGIN 1-27] was tested, and the “PI cell death (qualitative)” value (THP-1 cells [1]) was “decrease”, the “PI cell death, ORF3a induced cytotoxicity (qualitative)” value (A549 cells [2]) was “significant decrease” and the “cell death by LDH release (qualitative)” value (A549 cells [3]) was “confer cytoprotection”. The “cell death by LDH release (qualitative)” value (THP-1 cells [4]) was “confer cytoprotection”.

In the case of `CCC(C)N(C)C(=O)c1cc2ccccc2c(-c2ccccc2Cl)n1` (stereo not shown) [PK11195], the “PI cell death (qualitative)” value (THP-1 cells [1]) is reported as “decrease”, the “ASC protein levels co-immunoprecipitated with TSPO (qualitative)” value (ASC) is reported as “decrease in protein levels” and the “PI cell death, ORF3a induced cytotoxicity (qualitative)” value (A549 cells [2]) is reported as “significant decrease”. For the same molecule, the “cell death by LDH release (qualitative)” value (A549 cells [3]) was “confer cytoprotection” and the “cell death by LDH release (qualitative)” value (THP-1 cells [4]) was “confer cytoprotection”.

In the case of `CCN(Cc1ccccc1)C(=O)Cn1c(=O)n(C)c2cnc(-c3ccccc3)nc21` [XBD173], the “PI cell death (qualitative)” value (THP-1 cells [1]) is reported as “decrease”, the “PI cell death, ORF3a induced cytotoxicity (qualitative)” value (A549 cells [2]) is reported as “significant decrease” and the “cell death by LDH release (qualitative)” value (A549 cells [3]) is reported as “confer cytoprotection”. For the same molecule, the “cell death by LDH release (qualitative)” value (THP-1 cells [4]) was “confer cytoprotection”.

With `CCNC1=Nc2ccc(Cl)cc2C(C)(c2ccccc2)O1` (stereo not shown) [etifoxine] the “ASC protein levels co-immunoprecipitated with TSPO (qualitative)” value (ASC) was “decrease in protein levels”, the “PI cell death, ORF3a induced cytotoxicity (qualitative)” value (A549 cells [2]) was “significant decrease” and the “cell death by LDH release (qualitative)” value (A549 cells [3]) was “confer cytoprotection”. For the same molecule, the “cell death by LDH release (qualitative)” value (THP-1 cells [4]) was “confer cytoprotection” and the “reduction of cell death” value (Vero cells) was “approximately 50%”.

B1: TSPO (the 18 kDa translocator protein) (other)
chain: APPWVPAMGFTLAPSLGCFVGSRFVHGEGLRWYAGLQKPSWHPPHWVLGPVWGTLYSAMGYGSYLVWKELGGFTEKAVVPLGLYTGQLALNWAWPPIFFGARQMGWALVDLLLVSGAAAATTVAWYQVSPLAARLLYPYLAWLAFTTTLNYCVWRDNHGWRGGRRLPE
notes: also called peripheral benzodiazepine receptor
B1: no binding [5].
